Results on 61 compounds are retold here after the METLIN SMRT retention time set (Domingo-Almenara et al. 2019).

The data set in a line: gradient 5% acetonitrile 3 min, to 50% in 2 min, to 85% in 15 min, held 3 min, 100 µL/min. The following applies: column: Zorbax Extend-C18 2.1 x 50 mm; eluents: water / acetonitrile, 0.1% formic acid. The method, boiled down:
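Data were gathered over 3 months by HPLC coupled to a quadrupole time-of-flight mass spectrometer, operated in positive and negative ionization mode. Mixtures of ~100 pure standards ran on a Zorbax Extend-C18 column (2.1 × 50 mm, 1.8 μm) at 100 μL/min, with water and acetonitrile each containing 0.1% formic acid and dead and dwell volumes of 40 μL and 900 μL. Retention time was read from adduct peaks picked by computer and checked manually.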
On to `O=S(=O)(c1c[nH]c2ncccc12)N1CCc2ccccc21`, for which the RP-LC retention time came to 763 s. Under `Cc1ccc(-c2nc3ccccn3c2NC(=O)Nc2cccc(C)c2)cc1` stands 716 s. In turn, `O=C1NCC(=O)N2CC3(CCN(C(=O)C4CCCCC4)CC3)CC12` (stereo unspecified) yielded an RP-LC retention time of 624 s. The result for `N#Cc1ccc(-c2nc(-c3ccc4c(c3)ncn4CCN3CCCCC3)no2)cc1` reads 632 s; that for `Cc1ccc(-c2noc(-c3cccc(S(=O)(=O)NCc4ccc(C)o4)c3)n2)cc1`, 1170 s; that for `CC(C)n1c(N2CCCN(C(=O)c3ccco3)CC2)cc(=O)n(C(C)C)c1=O`, 756 s. The result for `COc1ccc(Br)cc1CNC(=O)CN1C(=O)CCCc2ccccc21` reads 892 s; that for `Cc1ccc(-c2noc(-c3cc(N4CCN(C)CC4)nc4ccccc34)n2)cc1`, 835 s; that for `CCCNC(=O)c1sc(-n2nc(C)c(Cl)c2C)nc1C`, 1130 s. The result for `O=C(Cn1cc(-c2nnco2)c2ccccc21)NCc1cccc(Cl)c1` reads 817 s; that for `CCS(=O)(=O)N1CCCc2cc(C(=O)NCC(C)C)ccc21`, 808 s. As for `Cc1nn2c(S(=O)(=O)N3CCOCC3)c(C)nc2s1`, the RP-LC retention time is 656 s. The result for `COCc1noc(C2CN(C(=O)c3cn[nH]c3)CC23CCCC3)n1` (stereo unspecified) reads 637 s; that for `Cc1nnc2cc(N3CCN(C(=O)c4cccc(N(C)C)c4)CC3)cnn12`, 496 s.

The compound `CN(C)[C@@H](CCOc1cccc2ccccc12)c1ccccc1` came in with an RP-LC retention time of 807 s. Under `O=C(NCc1cccs1)C1CCN(Cc2cc3ccccc3n2Cc2ccc(F)cc2)CC1` stands 783 s; under `CCOc1cccc(-c2noc(Cc3nnc(-c4cccc(OC)c4)o3)n2)c1`, 1080 s. The result for `O=S(=O)(c1cccc(F)c1)N1CC(c2nc(CCOCC3CCOCC3)no2)C1` reads 686 s; that for `CC1(C)CC(=O)c2c(O)cc(OCC(=O)O)cc2O1`, 738 s. Regarding `Cc1ccccc1CNC(=O)C1c2ccccc2CC(=O)N1C` (stereo unspecified), the RP-LC retention time was determined as 755 s. The result for `Cc1cccc(C(=O)Nc2ccc(N3CCN(C4CCCCC4)C3=O)nc2)c1` reads 950 s. With `O=C(CCC1CCN(c2cc(NC3CC3)ncn2)CC1)NCc1ccccc1F`, the RP-LC retention time was 673 s. Under `COc1ccc(NC(=O)C2CC(=O)N(c3ccc4oc(C)nc4c3)C2)cc1Cl` (stereo unspecified) stands 742 s; under `Cc1ccc(-c2ncc(C(=O)NCCN3CCCCCC3)c(-c3ccncc3)n2)cc1`, 637 s; under `O=C(Cn1cnc(-c2nc(-c3ccccc3)cs2)c1)N1CCN(c2ccccc2)CC1`, 853 s.

`Cc1cc(C2CCCN2C(=O)Nc2ccc(C)c(C)c2)on1` (stereo unspecified) returned an RP-LC retention time of 728 s.

As for `Cc1cccc(NC(=O)N2CCC(CC(=O)N3CCCCC3)CC2)c1C`, the RP-LC retention time is 751 s. For the compound `CC(=O)c1ccc(OC(=O)c2cc3c(C)nn(-c4cccc(F)c4)c3s2)cc1`, the RP-LC retention time was found to be 779 s. Turning to `Cc1cccc(Cn2c(=O)n(CCNC(=O)c3cccn3C)c3ncccc32)c1`, the RP-LC retention time was found to be 826 s. The result for `CC(C)n1c(=O)oc2cc(-c3noc(CNC(=O)c4ccccc4)n3)ccc21` reads 851 s; that for `O=C(O)CCCC(=O)N1C[C@H]2C[C@@H](C1)c1cccc(=O)n1C2`, 564 s; that for `COCC(=O)N(CC(=O)N1CCc2sccc2C1COc1ccc(Cl)cc1)C(C)(C)C` (stereo unspecified), 991 s. Compound `CCC(=O)N1CCN(C(=O)c2ccccc2)CC1` returned an RP-LC retention time of 693 s. The result for `CN(Cc1ccoc1)C(=O)Nc1ccccc1` reads 785 s. The result for `Cn1cc(-c2cc3n(n2)CCC(=O)N3CC(=O)Nc2cccc(F)c2)c2ccccc21` reads 829 s; that for `Cc1ccccc1-n1c(SCc2nc(-c3ccccc3)no2)nc2cc3c(cc2c1=O)OCO3`, 1190 s. The result for `Cc1cccc(OCC(=O)c2ccc3c(c2)N(C(C)C(=O)N2CCCC2)C(=O)CO3)c1C` (stereo unspecified) reads 922 s. Regarding `CCOC(=O)c1[nH]c(C)c(CN(CC2CCCO2)C(=O)c2ccc(OC)cc2)c1C` (stereo unspecified), the RP-LC retention time came to 852 s. For `CCN(CC)S(=O)(=O)c1ccc2c(c1)CC(C(=O)N1CCOCC1)N2C(C)=O` (stereo unspecified), the RP-LC retention time worked out at 663 s. Under `CC1CCCCN1c1nc(-c2ccc(C(C)(C)C)cc2)nc2ccccc12` (stereo unspecified) stands 1050 s; under `OC(c1ccncc1)c1cccc(Cl)c1F` (stereo unspecified), 586 s.

Consider `Clc1ccccc1OCc1nn2c(CSc3ccccc3)nnc2s1`, for which the RP-LC retention time turned out to be 1020 s. Under `Cc1ccc(CNC(=O)N2CCCC(C)(C(=O)NCc3ccc(F)cc3)C2)cc1` (stereo unspecified) stands 890 s; under `COCCc1noc(-c2cnc3nc(C)ccc3c2NCc2ccccc2C)n1`, 653 s. Compound `CC(=O)c1sc(NC(=O)C2COc3ccccc3O2)nc1C` (stereo unspecified) returned an RP-LC retention time of 763 s. The result for `CCNc1cc(C)nc(N2CCN(C(=O)c3ccc(-c4ccccc4)cc3)CC2)n1` reads 746 s; that for `CCCC(=O)Nc1ccc(-n2cnc(C(=O)NC)c2)nc1`, 598 s; that for `CC(C)C(=O)NCc1csc(C2CCCN(C(=O)CC(C)(C)C)C2)n1` (stereo unspecified), 734 s. The result for `CCn1c(=O)c(N2CCCC(C(=O)NCc3cc(Br)ccc3OC)C2)nc2ccccc21` (stereo unspecified) reads 1140 s; that for `CCC(C(=O)N1CCN(c2ncccn2)CC1)n1c2ccccc2c2cnn(C)c(=O)c21` (stereo unspecified), 875 s. Under `Cc1ccc(N2CC(NC(=O)NCc3cccs3)CC2=O)cc1C` (stereo unspecified) stands 704 s. In turn, `O=C(Nc1ccc(F)cc1F)Nc1c[nH]c2ccccc12` returned an RP-LC retention time of 755 s.

On to `Cc1ccc(-n2ncc3c(C)nnc(SCC(=O)N4CCC(C)CC4)c32)cc1C`, for which the RP-LC retention time came out at 716 s. `CC(C)CCNC(=O)CN1C(=O)CCCc2cc(S(=O)(=O)N3CCC(C)CC3)ccc21` came in with an RP-LC retention time of 938 s.

`Cc1ccc(S(=O)(=O)N2C[C@@H](F)C[C@H]2C(=O)N2CCc3ccccc3C2)c(C)c1` yielded an RP-LC retention time of 992 s. Compound `CCOc1ccccc1NC(=O)c1ccccc1[N+](=O)[O-]` had an RP-LC retention time of 823 s.

Turning to `CN1C2CCC1CC(OC(=O)c1cc(Cl)cc(Cl)c1)C2` (stereo unspecified), the RP-LC retention time was found to be 669 s. As for `CN(CC1CCOCC1)C(=O)Cc1ccsc1`, the RP-LC retention time was found to be 691 s. The result for `CC(C)(C)NC(=O)N1CCC(CNC(=O)c2ccccn2)CC1` reads 644 s; that for `O=C(c1ccccc1Cl)N1CCC(n2cnnc2C2CC2)CC1`, 620 s; that for `Cc1ccc(NC(=O)C2(Cc3ccccc3)CCCCC(=O)N2)cc1` (stereo unspecified), 848 s.
